PubChem BioAssay (NCI)
Where “and” joins values, the source holds several entries; their conditions need not be identical. Equal entries are not always repeated.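 Test compounds were applied to cells in 96-well plates for 48 hours at 5 doses. GI50 marks 50% less growth. TGI denotes the concentration required for complete inhibition of growth.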

Assays:
Test in all cases: NCI tumour cell line growth inhibition, 48 h
HOP-92 NSCLC = tested on: HOP-92 NSCLC
HS 578T breast = tested on: HS 578T breast
M14 melanoma = tested on: M14 melanoma
MDA-MB-231 breast = tested on: MDA-MB-231 breast
OVCAR-3 ovarian = tested on: OVCAR-3 ovarian
SF-268 CNS = tested on: SF-268 CNS
SK-MEL-2 melanoma = tested on: SK-MEL-2 melanoma
SK-MEL-28 melanoma = tested on: SK-MEL-28 melanoma
SW-620 colon = tested on: SW-620 colon
OVCAR-4 ovarian = tested on: OVCAR-4 ovarian

| Structure (SMILES) | GI50 (HOP-92 NSCLC) | TGI (HOP-92 NSCLC) | GI50 (HS 578T breast) | TGI (HS 578T breast) | GI50 (M14 melanoma) | TGI (M14 melanoma) | GI50 (MDA-MB-231 breast) | TGI (MDA-MB-231 breast) | GI50 (OVCAR-3 ovarian) | TGI (OVCAR-3 ovarian) | GI50 (SF-268 CNS) [µM] | TGI (SF-268 CNS) | GI50 (SK-MEL-2 melanoma) [µM] | TGI (SK-MEL-2 melanoma) | GI50 (SK-MEL-28 melanoma) [µM] | TGI (SK-MEL-28 melanoma) | GI50 (SW-620 colon) [µM] | TGI (SW-620 colon) | TGI (OVCAR-4 ovarian) | GI50 (OVCAR-4 ovarian) |
| --- | --- | --- | --- | --- | --- | --- | --- | --- | --- | --- | --- | --- | --- | --- | --- | --- | --- | --- | --- | --- |
| CCOc1nc(-c2ccccc2)cc2c(O)c(-c3nnco3)[nH]c(=O)c12 | 1.24 µM | 6.97 µM | 5.39 µM | 30.1 µM | 7.12 µM | > 100 µM | 1.66 µM | > 29.8 µM | 4.42 µM | > 100 µM | 5.62 | > 100 µM | 9.4 | > 46.9 µM | 30.9 | > 100 µM | 3.6 | > 100 µM | – | – |
| Cc1ccccc1N1C(=O)/C(=C/c2ccc(N(CCC#N)CCC#N)cc2)N=C1c1cc([N+](=O)[O-])ccc1Cl | – | – | – | – | – | > 100 µM | – | – | – | > 100 µM | – | > 100 µM | – | > 100 µM | – | > 100 µM | – | > 100 µM | > 100 µM | – |
| OCCN1CN(CCO)CN(c2nc(N3CN(CCO)CN(CCO)C3)nc(N3CN(CCO)CN(CCO)C3)n2)C1 | 1.85 ng/mL | 4.52 ng/mL | 3.08 ng/mL | 9.43 ng/mL | 1.36 ng/mL | 3.55 ng/mL | 0.776 ng/mL | 1.83 ng/mL | 2.2 ng/mL | 6300 ng/mL | – | 2.04 ng/mL | – | – | – | – | – | 1.04 ng/mL | 4.06 ng/mL | 1.69 ng/mL |
| CC1OC(n2cc(F)c(=O)[nH]c2=O)C=CC1O (stereo not given) | – | > 100 µM | – | – | – | > 100 µM | – | – | – | > 100 µM | – | > 100 µM | – | > 100 µM | – | > 100 µM | – | > 71.6 µM | > 100 µM | – |
| O=S(O)CCCCSSCC(O)C(O)CSSCCCCS(=O)O (stereo not given) | – | 79.7 µM and 96.5 µM | – | – | – | 24.2 µM and 30.6 µM | – | – | – | 23.8 µM and 25.6 µM | – | 32.1 µM and 57.9 µM | – | 37.4 µM and 49.8 µM | – | 45.1 µM and > 100 µM | – | 47.6 µM and 61.8 µM | 19.9 µM and 23.8 µM | – |
| CCOP(=O)(Cc1ccc(CP(=O)(OCC)OCC)n1C)OCC | – | > 100 µM | – | – | – | > 100 µM | – | – | – | > 100 µM | – | > 100 µM | – | > 100 µM | – | > 100 µM | – | > 100 µM | > 100 µM | – |
| COc1ccc(N(C)c2ncnc3occ(C)c23)cc1 | 0.0625 µM | > 100 µM | < 0.01 µM | < 0.01 µM | < 0.01 µM | > 100 µM | – | – | – | – | 0.0101 | > 62.3 µM | < 0.01 | 58.7 µM | < 0.01 | > 100 µM | < 0.01 | > 100 µM | > 100 µM | < 0.0311 µM |
| CCCCCCCCCC/C=C/CC(=O)SCCNC(=O)CCNC(=O)[C@@H](O)C(C)(C)COP(=O)(O)OP(=O)(O)OCC1OC(n2cnc3c(N)ncnc32)C(O)C1OP(=O)(O)O (stereo not given in full) | – | > 10 µM | – | > 10 µM | – | > 10 µM | – | > 10 µM | – | > 10 µM | – | > 10 µM | – | – | – | > 10 µM | – | > 10 µM | > 10 µM | – |
| Cc1ccc(S(=O)(=O)NCC2CCCCC2=O)cc1 (stereo not given) | – | 97.2 µM | – | – | – | > 100 µM | – | – | – | > 100 µM | – | > 100 µM | – | > 100 µM | – | > 100 µM | – | > 100 µM | > 100 µM | – |
| CCN(CC)CCOc1ccc(/C=C(\C#N)c2ccc(OCCN(CC)CC)cc2)cc1 | – | 55.4 µM | – | – | – | 19.9 µM | – | – | – | > 63.1 µM | – | 53.9 µM | – | 39.9 µM | – | 32 µM | – | 29.6 µM | > 75.4 µM | – |
| CC1=Nc2ccccc2C1C(Cc1ccccc1N)c1c(C)[nH]c2ccccc12 (stereo not given) | – | 26.1 µM | – | – | – | 28.3 µM | – | – | – | 31.4 µM | – | 21.5 µM | – | 23 µM | – | 32.8 µM | – | 34.7 µM | – | – |
| COc1ccc(OC)c(NC(=O)C(=O)NNC(=O)c2sc(NNC(C)=O)nc2C)c1 | – | 39.2 µM | – | – | – | > 100 µM | – | – | – | 66.3 µM | – | 75.9 µM | – | > 100 µM | – | > 100 µM | – | 46.6 µM | 71.2 µM | – |
| C=C(CCCCC)CN1CCCC1[C@@](C)(O)CC(=O)OCC (stereo not given in full) | – | > 100 µM | – | – | – | > 100 µM | – | – | – | > 100 µM | – | > 100 µM | – | > 100 µM | – | > 100 µM | – | > 100 µM | > 100 µM | – |
| CCCCN(CCCC)CC(C(=O)Nc1ccc([N+](=O)[O-])cc1[N+](=O)[O-])/C(C)=N\NC(=S)NN (stereo not given) | – | > 100 µM | – | – | – | > 100 µM | – | – | – | > 100 µM | – | > 100 µM | – | > 100 µM | – | > 100 µM | – | > 100 µM | – | – |
| COC(=O)C1=C(C)N(NC(=O)c2ccccc2)C(C)(O)C12CCOC2=O (stereo not given) | – | – | – | – | – | > 100 µM | – | – | – | > 100 µM | – | > 100 µM | – | 2.41 µM | – | > 100 µM | – | > 100 µM | > 100 µM | – |
| C/C(=C\CCc1ccoc1)CC/C=C(\C)CCCC1=CC(=O)OC1 | 2.09 µM | 13 µM | 3.26 µM | 36 µM | 7.28 µM | 45 µM | 5.97 µM | 28.9 µM | 9.69 µM | 25 µM | 17.7 | > 100 µM | 9.35 | 22.6 µM | 7.98 | 46.7 µM | 12.1 | > 100 µM | – | – |
| CCOC(=O)/C=C/C(C(=O)/C=C/c1ccc(OC2CCCCO2)c(OC)c1)=C(O)\C=C\c1ccc(OC2CCCCO2)c(OC)c1 (stereo not given) | 20.2 µM | 58.2 µM | 12.3 µM | 80.5 µM | 3.48 µM | 15.3 µM | 2.56 µM | 6.73 µM | 2.58 µM | 8.47 µM | 4.88 | > 100 µM | 3.27 | 15.2 µM | 2.48 | 6.74 µM | 3.65 | > 100 µM | – | – |
| O=C(O)CNc1cc(-c2ccccc2)nc(NCC(=O)O)n1 | – | > 100 µM | – | – | – | > 100 µM | – | – | – | > 100 µM | – | – | – | > 100 µM | – | > 100 µM | – | > 100 µM | > 100 µM | – |
| CC1=CC(/C=C(\C)CCCc2ccoc2)C2(OC(=O)C(C)=C2O)[C@H]2C1CC[C@@H]2C (stereo not given in full) | – | 41 µM | – | – | – | 60.9 µM | – | – | – | 51 µM | – | – | – | – | – | > 100 µM | – | > 100 µM | – | – |
| COC(=O)C1=C(c2ccc3c(c2)OCO3)O[C@H](c2cc(OC)c(OC)c(OC)c2)[C@H]1COC(C)=O | – | 36 µM | – | – | – | 13.6 µM | – | – | – | 8.22 µM | – | > 100 µM | – | > 100 µM | – | > 100 µM | – | > 100 µM | > 100 µM | – |
| O=C1CN=C(C[N+](=O)[O-])c2ccccc21 | – | > 100 µM | – | – | – | > 100 µM | – | – | – | > 100 µM | – | > 100 µM | – | > 100 µM | – | > 100 µM | – | > 100 µM | > 100 µM | – |
